Measured values reported in BigSolDB 2.1.

CC(=O)O[C@]1(C(C)=O)CC[C@H]2[C@@H]3C[C@H](C)C4=CC(=O)CC[C@]4(C)[C@H]3CC[C@@]21C
solubility (mole fraction)
Details | 278.15 K | 283.15 K | 288.15 K | 293.15 K | 298.15 K | 303.15 K | 308.15 K | 313.15 K | 318.15 K | 323.15 K
in acetone | 0.00469 | 0.00547 | 0.00618 | 0.00716 | 0.0083 | 0.00959 | 0.0112 | 0.0126 | 0.0144 | 0.0164
in acetonitrile | 0.00283 | 0.00339 | 0.00397 | 0.00473 | 0.0056 | 0.00664 | 0.00785 | 0.0092 | 0.0109 | 0.013
in ethanol | 0.000465 | 0.000655 | 0.000831 | 0.00106 | 0.00135 | 0.00168 | 0.00211 | 0.00267 | 0.0034 | 0.0043
in ethyl acetate | 0.00327 | 0.00385 | 0.00446 | 0.00515 | 0.00584 | 0.00671 | 0.00773 | 0.00887 | 0.0102 | 0.0118
in isobutanol | 0.000675 | 0.00085 | 0.00121 | 0.00157 | 0.00202 | 0.00269 | 0.00351 | 0.00463 | 0.00611 | 0.00789
in isobutyl acetate | 0.00292 | 0.00334 | 0.0039 | 0.00443 | 0.005 | 0.00574 | 0.00654 | 0.00736 | 0.00849 | 0.00979
in isopropanol | 0.000451 | 0.000651 | 0.000754 | 0.000945 | 0.00126 | 0.00166 | 0.00217 | 0.00281 | 0.00373 | 0.00477
in isopropyl acetate | 0.00234 | 0.00273 | 0.00317 | 0.00367 | 0.00428 | 0.00497 | 0.00567 | 0.00657 | 0.00751 | 0.00866
in methanol | 0.000588 | 0.000719 | 0.000887 | 0.0011 | 0.00135 | 0.00165 | 0.00202 | 0.0025 | 0.00309 | 0.00381
in methyl acetate | 0.00351 | 0.00415 | 0.00479 | 0.00557 | 0.00649 | 0.00748 | 0.00866 | 0.00999 | 0.0115 | 0.0131
in n-butanol | 0.000757 | 0.000978 | 0.00131 | 0.00168 | 0.0022 | 0.00277 | 0.00356 | 0.0046 | 0.0059 | 0.00753
in n-butyl acetate | 0.00296 | 0.0035 | 0.00406 | 0.00462 | 0.00538 | 0.00622 | 0.00716 | 0.00829 | 0.00958 | 0.0111
in n-propanol | 0.000683 | 0.00089 | 0.00114 | 0.00148 | 0.00188 | 0.00245 | 0.0031 | 0.00395 | 0.00508 | 0.00648
in n-propyl acetate | 0.0032 | 0.00384 | 0.00446 | 0.00517 | 0.0059 | 0.00682 | 0.00791 | 0.00917 | 0.0105 | 0.012
